In ChEMBL document CHEMBL3507680, “University of Dundee, Gates Library screen for HepG2 cell viability”:

Experiment: Human HepG2 cell viability assay in 384 well format
Assay type: toxicity, cell-based
Parameters: dose 125 nL, time 70.5 hour; cytotoxicity at 70.5 h: concentration not given beside the values
Conditions: HepG2 cells, read-out: Inhibition

Row | SMILES | cytotoxicity at 70.5 h
1 | O=C(Cn1ccc(=O)[nH]c1=O)Nc1ccccc1F | -4.99%
2 | O=C1CN(C(=O)c2cc(Cl)ccc2F)c2ccccc2N1 | 37.1%
3 | CC(C)Oc1ccc(CNC(=O)C2CCS(=O)(=O)C2)cn1 (stereo not drawn) | 26.3%
4 | COc1ccc(N(CCC(N)=O)C(=O)CSc2ccc(F)c(F)c2)cc1 | -12.7%
5 | COc1ccc(C(=O)NCC(=O)N(Cc2ccsc2)C2CC2)cc1OC | 30.2%
6 | COc1ccc(CC(=O)N2CCC(c3nnc4n3CCC4)CC2)cc1F | -5.72%
7 | Cc1cc(C)c(CNC(=O)N2CCC(N3CCCC3)CC2)c(=O)[nH]1 | -7.61%
8 | Cc1ccc(CC(=O)N2CCC(c3nnc4n3CCC4)CC2)cc1 | -8.21%
9 | Cc1cc(C)c(CNC(=O)N2CCC(N3CCNC3=O)CC2)c(=O)[nH]1 | -10.5%
10 | CC(=O)N1CCN(C(=O)NCc2ccccc2Cn2ccnc2)CC1 | -14.1%
11 | O=C(c1cnc(NCCC2CCCO2)c(Cl)c1)N1CCCCC1 (stereo not drawn) | -10%
12 | CCn1cnnc1C1CCN(C(=O)Cc2ccc(OC)c(F)c2)CC1 | -7.22%
13 | O=C(NCc1ccccc1Cn1ccnc1)N1CCOCC1 | -9.82%
14 | COc1ccccc1S(=O)(=O)N1CC(N(C)C)Cc2ccccc21 (stereo not drawn) | 30.7%
15 | COc1cc(CCNC(=O)NCCC2CCCO2)ccc1C (stereo not drawn) | -9.73%
16 | CC(Oc1ccc(OCc2ncc(C(C)C)o2)cc1)C(N)=O (stereo not drawn) | -8.33%
17 | CCc1nsc(N2CCC3(CC2)OCCO3)n1 | -8.49%
18 | CC(N1CCN(C(=O)NCc2cccc(C#N)c2)CC1)C(F)(F)F (stereo not drawn) | -0.642%
19 | COCc1nc(C)cc(Nc2ccc3c(c2)CC(=O)N3)n1 | -7.41%
20 | CCc1cnc(CN2CCCC(c3cc(C)[nH]n3)C2)o1 (stereo not drawn) | -8.59%
21 | O=C(NCCc1ccn(-c2ccc(F)cc2)n1)C1CCCO1 (stereo not drawn) | -5.68%
22 | CN1CC(C(=O)NCCc2ccn(-c3ccc(F)cc3)n2)CC1=O (stereo not drawn) | -9.34%
23 | c1cc(CCN2CCCC2CN2CCCC2)ccn1 (stereo not drawn) | 30%
24 | CSCC1CCCN1CCc1ccncc1 (stereo not drawn) | 27.5%

Row | SMILES | cytotoxicity at 70.5 h
25 | Cc1ncc2c(n1)CN(CC(=O)N1CCc3sccc3C1)CC2 | -1.15%
26 | CCc1ncc2c(n1)CN(CC(=O)N1CCc3sccc3C1)CC2 | -9%
27 | COc1cc(C(C)NCc2scnc2C)ccc1SC(F)F (stereo not drawn) | -9.67%
28 | O=C(CCN1CCc2cncnc2C1)N1CCc2sccc2C1 | -1.14%
29 | CC(C)CC(C)N(C)Cc1nnc(-c2ccco2)o1 (stereo not drawn) | 31.7%
30 | COCc1ccc(C(=O)N2CCCN(C(=O)OCC(C)C)CC2)cc1 | 19%
31 | Cc1cc(C2CCCN(C(=O)c3ccc(OCC4CC4)nc3)C2)n[nH]1 (stereo not drawn) | -4.64%
32 | Cc1cc(Cl)ccc1NCC(=O)Nc1cc(C(C)(C)C)no1 | -6.23%
33 | CCCC(C)N(C)Cc1nnc(-c2ccco2)o1 (stereo not drawn) | 1.45%
34 | CCOC(=O)NCCC(=O)NCc1ccc(Oc2ccc(F)cc2)nc1 | 1.62%
35 | CCc1noc(C)c1C(=O)NCc1ccccn1 | -0.245%
36 | CCOC(=O)NCCC(=O)NCc1ccc(Oc2cccc(F)c2)nc1 | -3.11%
37 | CC(NC(=O)CCc1nc(-c2nnc[nH]2)no1)c1ccc(F)cc1F (stereo not drawn) | 4.47%
38 | CN(C)c1cc(C(=O)Nc2ccccc2C(=O)NC(C)(C)C)ccn1 | -2.3%
39 | CCNC(=O)Cc1ccc(NC(=O)NC(CC)CC)cc1 | 1.05%
40 | Cn1c(C2CCCN2C(=O)CN2CSCC2=O)nc2ccccc21 (stereo not drawn) | -5.23%
41 | CC(C)COC(=O)N1CCCN(C(=O)c2ccnc(N(C)C)c2)CC1 | 1.08%
42 | Cc1nc2cc(=O)[nH]n2c(C)c1CC(=O)Nc1cn[nH]c1 | -2.66%
43 | CC(NC1(CNC(=O)CC2CCCC2)CCOCC1)c1ccccc1 (stereo not drawn) | -6.24%
44 | Cc1nc2cc(=O)[nH]n2c(C)c1CNC(=O)c1cnn(C(C)(C)C)c1 | 4.01%
45 | CCOC(=O)c1nnc2ccccc2c1N1CCOC(C)(C)C1 | 16.1%
46 | O=C(NCc1ccc(CN2CCCC2)cc1)NCc1ccon1 | -3.38%
47 | CSc1ccc(C(CC(=O)O)NC(=O)c2cc(C)on2)cc1 (stereo not drawn) | 0.955%
48 | CC(NC1(CNC(=O)OC(C)(C)C)CCOCC1)c1ccccc1 (stereo not drawn) | -5.89%

Row | SMILES | cytotoxicity at 70.5 h
49 | Cc1cn2c(n1)CCC(NS(=O)(=O)c1cc(C)sc1C)C2 (stereo not drawn) | -3.85%
50 | CC(=O)N1CCN(CCNS(=O)(=O)c2cccc(F)c2)CC1 | -0.607%
51 | O=C(C1CCCCC1)N1CCC2(CC1)OCCO2 | -5.09%
52 | Cc1ncsc1C(=O)Nc1ccccn1 | -6.03%
53 | CC(=O)N1CCN(CCNS(=O)(=O)c2cc(F)cc(F)c2)CC1 | -0.303%
54 | CC(C)COCCC(=O)NCCC(=O)N1CCN(c2ccccn2)CC1 | -2.77%
55 | Cc1nc(C2(NCC(=O)NC(=O)Nc3ccccc3)CCCCC2)no1 | -0.595%
56 | Cc1nc(C2(NCC(=O)NCc3cccs3)CCCCC2)no1 | -2.14%
57 | Cc1ccc(C(=O)N(C)Cc2ccc(Br)s2)c(=O)[nH]1 | 2.28%
58 | CC(C)Cc1cc(C(=O)NC(C)C)[nH]n1 | -4.46%
59 | NC(=O)C(CNC(=O)CCc1ccccc1)Cc1ccc(F)cc1 (stereo not drawn) | -2.33%
60 | CC(=O)N1CCN(CCNS(=O)(=O)c2c(F)cccc2F)CC1 | -5.97%
61 | CCc1ccc(C(=O)N2CCC(c3nncn3CC)CC2)o1 | -6.22%
62 | O=C(NCCCNC(=O)c1ccccc1)Nc1ccc(F)cc1F | -4.28%
63 | CCn1cnnc1C1CCN(C(=O)c2ccc3c(c2)nnn3C)CC1 | 22.3%
64 | CCn1cnnc1C1CCN(C(=O)c2cccc(N(C)C)c2)CC1 | 1.66%
65 | CC(C)NC(=O)NCC(Cc1ccc(F)cc1)C(N)=O (stereo not drawn) | 21.5%
66 | CC(C)S(=O)(=O)CC(=O)NCC(Cc1ccc(F)cc1)C(N)=O (stereo not drawn) | 1.75%
67 | Cc1cnc(CN(C)C2CCCN(c3cccnn3)C2)cn1 (stereo not drawn) | -0.507%
68 | CC(c1nc(C(C)(C)C)no1)N1CCN(C(=O)CN2CCOCC2)CC1 (stereo not drawn) | -6.71%
69 | Cc1ncc(CNC2CCc3nc(C(C)C)nn3C2)s1 (stereo not drawn) | 1.67%
70 | Cc1cc(CNC2CCc3nc(C(C)C)nn3C2)on1 (stereo not drawn) | -5.91%
71 | O=C(CCS(=O)(=O)C1CCCC1)N1CCCC1c1ccsc1 (stereo not drawn) | -4.99%
72 | Cc1ccc(NC(=O)CNc2cccc(C(N)=O)c2C)c(C)c1 | 33.2%

Row | SMILES | cytotoxicity at 70.5 h
73 | COc1ccc(C2CCCN2Cc2nnnn2C2CC2)cc1OC (stereo not drawn) | -0.63%
74 | CN(Cc1ccncc1)C(=O)NC1CCS(=O)(=O)C1 (stereo not drawn) | -3.72%
75 | Cc1csc(CCNC(=O)Nc2cc(C(F)(F)F)c[nH]c2=O)n1 | -1.34%
76 | COCCOCCNC(=O)c1cccc(Cn2nc(C)cc2C)c1 | 34.2%
77 | Cc1nc(CNC(=O)Nc2cc(C(F)(F)F)c[nH]c2=O)cs1 | 1.62%
78 | CC(C)CN1CCC(NC(=O)c2ccc(Cl)cc2Cl)CC1 | -1.21%
79 | CCOCCNC(=O)c1cccc(Cn2nc(C)cc2C)c1 | -7.21%
80 | N#CCCCOc1cccnc1NC(=O)CCC1CCCC1 | -0.625%
81 | CCc1nnc2n1CCN(C(=O)c1ccc(C)c(S(N)(=O)=O)c1)C2 | -1.49%
82 | O=C(CN1CCCC1Cn1cncn1)Nc1nccs1 (stereo not drawn) | -7%
83 | COc1ccc(CNCCc2cc(F)cc3c2OCOC3)cc1OC | 2.03%
84 | CCN(CC)C(=O)CNC(=O)c1ccc(-c2ccsc2)nc1C | 59.9%
85 | Cc1cnn(CC2CN(CC(=O)Nc3cccnc3)CCO2)c1 (stereo not drawn) | -4.29%
86 | Cc1nc(CN2CCC(N(C)Cc3noc(C(C)C)n3)C2)oc1C (stereo not drawn) | 10.7%
87 | CCc1cnc(CN(C)C2CCN(CCNS(=O)(=O)CC)C2)o1 (stereo not drawn) | 2.11%
88 | CCc1cnc(CN(C)C2CCN(CC3CCOCC3)C2)o1 (stereo not drawn) | 4.66%
89 | CCCc1n[nH]c(C2CN(C(=O)CCCn3ccnc3)CCO2)n1 (stereo not drawn) | -0.218%
90 | Fc1ccc(CNCCn2cccn2)c(F)c1 | 21.2%
91 | Cc1ccc(C(=O)N2CCCC2c2nnc3n2CCCCC3)s1 (stereo not drawn) | 8.9%
92 | Cc1cc(C(=O)N2CCCC2c2nnc3n2CCCCC3)on1 (stereo not drawn) | -2.64%
93 | CCCOc1cc(C)ccc1NC(=O)NCCNC(=O)C(C)C | 25.7%
94 | Cc1nn(C)c(C)c1CCC(=O)N(C)Cc1ccc(C#N)cc1 | 1.66%
95 | O=C(c1ccc(Cl)o1)N1CCCC1c1nnc2n1CCCCC2 (stereo not drawn) | 1.9%
96 | Cc1ncncc1C(=O)NCCN1CCC(C)CC1 | 5.52%

Row | SMILES | cytotoxicity at 70.5 h
97 | Cc1nn(C)c(N2CCOCC2)c1CNC(C(N)=O)c1ccccc1 (stereo not drawn) | 4.26%
98 | CS(=O)(=O)N1CCC(Oc2ccc(C#N)cc2)CC1 | 7.19%
99 | CN(C)C(=O)c1cnc(-c2ccc3c(c2)OCO3)s1 | 6.77%
100 | CC(C)N(CC(N)=O)C(=O)c1cnc(-c2ccc3c(c2)OCO3)s1 | 5.92%
101 | CC(C)c1nnc2n1CC(CNCc1nc3ccccc3s1)CC2 (stereo not drawn) | 21.9%
102 | COc1ccc(CN(C)C(=O)Cc2c(C)nn(C)c2C)cc1F | 2.24%
103 | COc1ccc(C2CCCCCN2S(C)(=O)=O)cc1 (stereo not drawn) | 1.84%
104 | CCS(=O)(=O)CCN1CCC(N(C)Cc2ncc(C)o2)C1 (stereo not drawn) | 0.306%
105 | CCc1n[nH]c(C2CN(C(=O)CCCn3cccn3)CCO2)n1 (stereo not drawn) | 2.59%
106 | Cc1ccc(NCCCNC(=O)NCC2CCS(=O)(=O)C2)nc1 (stereo not drawn) | -17.4%
107 | Cc1ccc(-c2nnc(CN3CC(n4cc(C)cn4)C3)o2)cc1 | -13.9%
108 | NC(=O)c1cccc(CNC/C=C/c2ccccc2)c1 | 12.6%
109 | COC(=O)NCC(=O)NC(c1ccc(Cl)cc1)C(F)(F)F (stereo not drawn) | -8.75%
110 | Cc1cc(-c2noc(C3CCS(=O)(=O)C3)n2)ccc1F (stereo not drawn) | -11%
111 | NC(=O)C1CN(C(=O)NCC2(c3ccc(F)cc3)CCC2)CCO1 (stereo not drawn) | 1.35%
112 | O=C(NCC1(c2ccc(F)cc2)CC1)N1CCC2(CCOC2)C1 (stereo not drawn) | 13.9%
113 | CN(CCNS(C)(=O)=O)CC(c1cccs1)N1CCOCC1 (stereo not drawn) | -8.66%
114 | CC(C)N(CCNCc1ccc(C#N)cc1)C1CC1 | 17.7%
115 | O=C(NCC1(c2ccc(F)cc2)CCC1)N1CCC2(C1)OCCO2 | -8.6%
116 | CCc1sc(-c2nnc(CNC(C)Cn3cc(C)cn3)o2)cc1C (stereo not drawn) | 5.1%
117 | CCc1sc(-c2nnc(CNC(C)Cn3cccn3)o2)cc1C (stereo not drawn) | -11.3%
118 | Cc1cnn(C2CN(Cc3nnc(Cc4ccccc4)o3)C2)c1 | -13.1%
